From ChEMBL document CHEMBL5370623, “Discovery of Quinazoline-2,4(1H,3H)-dione Derivatives Containing a Piperizinone Moiety as Potent PARP-1/2 Inhibitors─Design, Synthesis, In Vivo Antitumor Activity, and X-ray Crystal Structure Analysis” (J Med Chem, 2023)

Assays:
[1] = molecular target: Poly [ADP-ribose] polymerase 1 (Homo sapiens, UniProt P09874)
Description: Inhibition of PARP1 (unknown origin)

[2] = molecular target: Poly [ADP-ribose] polymerase 2 (Homo sapiens, UniProt Q9UGN5); assay: Inhibition of PARP2 (unknown origin)
Poly [ADP-ribose] polymerase 2, sequence (Q9UGN5 whole entry): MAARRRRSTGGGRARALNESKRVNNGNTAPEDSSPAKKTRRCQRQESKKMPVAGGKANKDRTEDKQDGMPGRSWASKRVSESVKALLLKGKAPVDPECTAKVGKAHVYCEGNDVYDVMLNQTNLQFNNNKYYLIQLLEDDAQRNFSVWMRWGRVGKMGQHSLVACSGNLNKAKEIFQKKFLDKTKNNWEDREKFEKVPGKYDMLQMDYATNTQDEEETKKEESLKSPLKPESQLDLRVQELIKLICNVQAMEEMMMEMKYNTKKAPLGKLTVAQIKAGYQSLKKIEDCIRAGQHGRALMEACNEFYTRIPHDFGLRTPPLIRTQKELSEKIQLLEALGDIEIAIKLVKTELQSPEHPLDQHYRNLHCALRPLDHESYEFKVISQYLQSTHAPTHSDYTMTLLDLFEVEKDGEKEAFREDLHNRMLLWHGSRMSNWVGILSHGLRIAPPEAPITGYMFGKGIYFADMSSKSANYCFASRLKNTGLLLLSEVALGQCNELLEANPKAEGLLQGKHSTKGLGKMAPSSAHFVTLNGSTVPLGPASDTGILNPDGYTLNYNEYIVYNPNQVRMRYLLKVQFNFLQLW

Poly [ADP-ribose] polymerase 1, sequence (P09874 whole entry): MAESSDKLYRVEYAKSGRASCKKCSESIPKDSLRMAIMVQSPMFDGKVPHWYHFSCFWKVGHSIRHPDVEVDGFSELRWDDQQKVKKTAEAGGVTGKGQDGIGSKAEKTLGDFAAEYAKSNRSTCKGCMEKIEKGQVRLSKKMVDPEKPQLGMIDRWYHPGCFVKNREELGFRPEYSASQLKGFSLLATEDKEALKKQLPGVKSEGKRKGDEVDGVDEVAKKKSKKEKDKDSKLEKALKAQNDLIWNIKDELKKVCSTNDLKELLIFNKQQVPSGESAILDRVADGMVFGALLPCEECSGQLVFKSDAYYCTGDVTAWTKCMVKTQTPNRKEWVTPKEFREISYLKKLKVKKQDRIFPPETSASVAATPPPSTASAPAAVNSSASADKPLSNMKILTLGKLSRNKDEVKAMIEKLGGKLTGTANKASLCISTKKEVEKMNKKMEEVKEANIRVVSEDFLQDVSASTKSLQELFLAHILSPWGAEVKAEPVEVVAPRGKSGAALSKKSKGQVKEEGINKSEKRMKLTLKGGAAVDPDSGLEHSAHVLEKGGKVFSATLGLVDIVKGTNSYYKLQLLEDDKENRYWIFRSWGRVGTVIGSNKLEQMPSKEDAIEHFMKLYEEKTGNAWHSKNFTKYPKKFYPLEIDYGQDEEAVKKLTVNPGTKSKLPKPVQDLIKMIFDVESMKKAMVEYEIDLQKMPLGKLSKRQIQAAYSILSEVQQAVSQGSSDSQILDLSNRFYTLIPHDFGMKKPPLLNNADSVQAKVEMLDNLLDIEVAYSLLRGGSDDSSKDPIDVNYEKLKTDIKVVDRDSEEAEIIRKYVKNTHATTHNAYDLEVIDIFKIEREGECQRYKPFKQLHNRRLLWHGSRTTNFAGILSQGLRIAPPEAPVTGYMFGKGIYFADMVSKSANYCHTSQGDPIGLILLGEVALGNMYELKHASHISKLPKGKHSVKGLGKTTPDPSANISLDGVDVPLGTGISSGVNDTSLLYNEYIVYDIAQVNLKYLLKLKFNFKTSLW

| IC50 [1] [nM] | IC50 [2] [nM] | Structure (SMILES) |
| --- | --- | --- |
| < 0.001 | – | O=C(c1cc(Cc2n[nH]c(=O)c3ccccc23)ccc1F)N1CCn2c(nnc2-c2ccc(Br)o2)C1 |
| – | 0.3 | C[C@]12CCCN1CC1=NNC(=O)c3cc(F)cc4[nH]c2c1c34 [PAMIPARIB] |
